Source: patent publication US8637498B2, “Oxopiperazine-azetidine amides and oxodiazepine-azetidine amides as monoacylglycerol lipase inhibitors” (Janssen Pharmaceutica, NV, priority 2010, dated 2014)
Changes are numbered by the printed parent chain. Read-outs that look alike come from different tables or passages of the source.

Columns and labels:
mutant MGL = target: T1, mutant MGL (Homo sapiens, UniProt Q99685, L169S/L176S); experiment: MGL ThermoFluor Assay - Mutant; format: binding
T1 construct: mut-MGLL 11-313 L179S L186S
T1 sequence (Q99685 1-303 L169S/L176S): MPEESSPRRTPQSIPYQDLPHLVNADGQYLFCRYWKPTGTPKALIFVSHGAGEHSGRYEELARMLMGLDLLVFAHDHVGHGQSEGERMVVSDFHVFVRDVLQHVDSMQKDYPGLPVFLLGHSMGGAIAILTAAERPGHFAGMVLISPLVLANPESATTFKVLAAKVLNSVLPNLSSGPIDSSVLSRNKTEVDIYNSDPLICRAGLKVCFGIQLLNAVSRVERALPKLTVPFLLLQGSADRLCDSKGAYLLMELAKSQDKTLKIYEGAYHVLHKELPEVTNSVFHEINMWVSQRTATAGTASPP
Description: The ThermoFluor (TF) assay is a 384-well plate-based binding assay that measures thermal stability of proteins^1,2. The experiments were carried out using instruments available from Johnson & Johnson Pharmaceutical Research & Development, LLC. TF dye used in all experiments was 1,8-ANS (Invitrogen: A-47). Final TF assay conditions used for MGL studies were 0.07 mg/ml of mutant MGL, 100 μM ANS, 200 mM NaCl, 0.001% Tween-20 in 50 mM PIPES (pH=7.0).
Screening compound plates contained 100% DMSO compound solutions at a single concentration. For follow-up concentration-response studies, compounds were arranged in a pre-dispensed plate (Greiner Bio-one: 781280), wherein compounds were serially diluted in 100% DMSO across 11 columns within a series. Columns 12 and 24 were used as DMSO reference and contained no compound. For both single and multiple compound concentration-repsonse experiments, the compound aliquots (46 nL) were robotically predispensed directly into 384-well black assay plates (Abgene: TF-0384/k) using the Hummingbird liquid handler. Following compound dispension, protein and dye solutions were added to achieve the final assay volume of 3 μL. The assay solutions were overlayed with 1 μL of silicone oil (Fluka, type DC 200: 85411) to prevent evaporation.
Bar-coded assay plates were robotically loaded onto a thermostatically controlled PCR-type thermal block and then heated from 40 to 90° C. degrees at a ramp-rate of 1° C./min for all experiments. Fluorescence was measured by continuous illumination with UV light (Hamamatsu LC6), supplied via fiber optics and filtered through a band-pass filter (380-400 nm; >6 OD cutoff). Fluorescence emission of the entire 384-well plate was detected by measuring light intensity using a CCD camera (Sensys, Roper Scientific) filtered to detect 500±25 nm, resulting in simultaneous and independent readings of all 384 wells. A single image with 20-sec exposure time was collected at each temperature, and the sum of the pixel intensity in a given area of the assay plate was recorded vs temperature and fit to standard equations to yield the Tm^1. • 1. Pantoliano, M. W., Petrella, E. C., Kwasnoski, J. D., Lobanov, V. S., Myslik, J., Graf, E., Carver, T., Asel, E., Springer, B. A., Lane, P., and Salemme, F. R. (2001) J Biomol Screen 6, 429-40. • 2. Matulis, D., Kranz, J. K., Salemme, F. R., and Todd, M. J. (2005) Biochemistry 44, 5258-66.
The Kd values for compounds of Formula (Ia) and (Ib) were determined from a fit of the equation to the concentration-response plot of the fractional activity as a function of Tm. For some experiments, quantitative NMR spectroscopy (qNMR) was used to measure concentration of the initial 100% DMSO compound solutions and, using the same fitting method, qKd values were determined.

[1] = target: T2, purified wild type MGL (wt-MGLL 6H-11-313) (Homo sapiens, UniProt Q99685); experiment: MGL Enzyme Activity Assay (wild type MGL, 4MU-B substrate); format: biochemical; conditions: wild type MGL 5 nM, 4MU-B 10 μM, 37° C.; read-out: MGL wild type inh IC50
T2 construct: wt-MGLL 6H-11-313; 6H (hexahistidine) (N)
T2 sequence (Q99685 1-303): T1 sequence (Q99685 1-303 L169S/L176S) with S169L, S176L
Description: All rate-based assays were performed in black 384-well polypropylene PCR microplates (Abgene) in a total volume of 30 μL. Substrate 4-methylumbelliferyl butyrate (4MU-B; Sigma) and either purified mutant MGL (mut-MGLL 11-313 L179S L186S) or purified wild type MGL (wt-MGLL 6H-11-313) were diluted separately into 20 mM PIPES buffer (pH=7.0), containing 150 mM NaCl and 0.001% Tween 20. Compounds of Formula (Ia) and (Ib) were pre-dispensed (50 nL) into the assay plate using a Cartesian Hummingbird prior to adding 4MU-B (25 μL of 1.2× solution to a final concentration of 10 μM) followed by enzyme (5 μL of a 6× solution to a final concentration of 5 nM) to initiate the reaction. Final compound concentrations ranged from 17 to 0.0003 μM. The fluorescence change due to 4MU-B cleavage was monitored with excitation and emission wavelengths of 335 and 440 nm, respectively, and a bandwidth of 10 nm (Safire^2, Tecan) at 37° C. for 5 min.
The IC50 values for compounds of Formula (Ia) or (Ib) were determined using Excel from a fit of the equation to the concentration-response plot of the fractional activity as a function of inhibitor concentration.

[2] = mutant MGL, compound concentration measured by qNMR, read-out: MGL mutant ThermoFluor qKd (using qNMR conc.)
[3] = mutant MGL 0.07 mg/ml, 1,8-ANS dye, read-out: MGL mutant ThermoFluor Kd

| Kd (mutant MGL; [2]) [nM] | IC50 [1] [nM] | Kd (mutant MGL; [3]) [nM] | SMILES |
| --- | --- | --- | --- |
| 943 | 134 | – | O=C(c1ccc2c(ccn2-c2ccc(F)cc2)c1)N1CC(N2CCN(c3ncccn3)C(=O)C2)C1 [Cpd 4, 4-(1-{[1-(4-Fluorophenyl)-1H-indol-5-yl]carbonyl}azetidin-3-yl)-1-pyrimidin-2-ylpiperazin-2-one] |
| 165 | 124 | – | O=C(c1sc2cc(C(F)(F)F)ccc2c1Cl)N1CC(N2CCN(c3ncccn3)C(=O)C2)C1 [Cpd 8, 4-(1-{[3-Chloro-6-(trifluoromethyl)-1-benzothiophen-2-yl]carbonyl}azetidin-3-yl)-1-pyrimidin-2-ylpiperazin-2-one] |
| 5660 | 7850 | – | O=C(c1ccc(-c2ccccc2)cc1)N1CC(N2CCN(c3ncccn3)C(=O)C2)C1 [Cpd 9, 4-[1-(Biphenyl-4-ylcarbonyl)azetidin-3-yl]-1-pyrimidin-2-ylpiperazin-2-one] |
| 10600 | 3640 | – | O=C(c1ccc2nc(-c3ccccc3)sc2c1)N1CC(N2CCN(c3ncccn3)C(=O)C2)C1 [Cpd 10, 4-{1-[(2-Phenyl-1,3-benzothiazol-6-yl)carbonyl]azetidin-3-yl}-1-pyrimidin-2-ylpiperazin-2-one] |
| – | < 5 | 64.3 | O=C(c1sc2cc(C(F)(F)F)ccc2c1Cl)N1CC(N2CCN(c3nccs3)C(=O)C2)C1 [Cpd 11, 4-(1-{[3-Chloro-6-(trifluoromethyl)-1-benzothiophen-2-yl]carbonyl}azetidin-3-yl)-1-(1,3-thiazol-2-yl)piperazin-2-one] |
| – | 98.6 | 994 | O=C(c1ccc2nc(-c3ccccc3)sc2c1)N1CC(N2CCN(c3nccs3)C(=O)C2)C1 [Cpd 12, 4-{1-[(2-Phenyl-1,3-benzothiazol-6-yl)carbonyl]azetidin-3-yl}-1-(1,3-thiazol-2-yl)piperazin-2-one] |
| – | 908 | 1350 | O=C(c1ccc2c(ccn2-c2ccc(C(F)(F)F)cc2)c1)N1CC(N2CCN(c3ccccc3)C(=O)C2)C1 [Cpd 13, 1-Phenyl-4-[1-({1-[4-(trifluoromethyl)phenyl]-1H-indol-5-yl}carbonyl)azetidin-3-yl]piperazin-2-one] |
| – | 225 | 495 | O=C(c1sc2cc(C(F)(F)F)ccc2c1Cl)N1CC(N2CCN(c3ccccc3)C(=O)C2)C1 [Cpd 14, 4-(1-{[3-Chloro-6-(trifluoromethyl)-1-benzothiophen-2-yl]carbonyl}azetidin-3-yl)-1-phenylpiperazin-2-one] |
| – | 304 | 1970 | O=C(c1ccc2c(ccn2-c2ccc(F)c(F)c2)c1)N1CC(N2CCN(c3ccccc3)C(=O)C2)C1 [Cpd 15, 4-(1-{[1-(3,4-Difluorophenyl)-1H-indol-5-yl]carbonyl}azetidin-3-yl)-1-phenylpiperazin-2-one] |
| 1380 | 67.7 | – | O=C(c1ccc2nc(-c3ccccc3)oc2c1)N1CC(N2CCN(c3nccs3)C(=O)C2)C1 [Cpd 16, 4-{1-[(2-Phenyl-1,3-benzoxazol-6-yl)carbonyl]azetidin-3-yl}-1-(1,3-thiazol-2-yl)piperazin-2-one] |
| 52.5 | 55.4 | – | O=C(c1sc2cc(C(F)(F)F)ccc2c1Cl)N1CC(N2CCC(=O)N(c3ncccn3)CC2)C1 [Cpd 17, 1-(1-{[3-Chloro-6-(trifluoromethyl)-1-benzothiophen-2-yl]carbonyl}azetidin-3-yl)-4-pyrimidin-2-yl-1,4-diazepan-5-one] |
| 1370 | 1660 | – | O=C(c1ccc(-c2ccccc2)cc1)N1CC(N2CCN(c3nccs3)C(=O)C2)C1 [Cpd 18, 4-[1-(Biphenyl-4-ylcarbonyl)azetidin-3-yl]-1-(1,3-thiazol-2-yl)piperazin-2-one] |
| 0.8 | < 5 | – | O=C(c1sc2cc(C(F)(F)F)ccc2c1Cl)N1CC(N2CCC(=O)N(c3nccs3)CC2)C1 [Cpd 19, 1-(1-{[3-Chloro-6-(trifluoromethyl)-1-benzothiophen-2-yl]carbonyl}azetidin-3-yl)-4-(1,3-thiazol-2-yl)-1,4-diazepan-5-one] |
